Reference: ChEMBL document CHEMBL1145625, “QSAR study of mosquito repellents from terpenoid with a six-member-ring” (2008)

Tested on: Culex pipiens
Assay: Mosquito repellent activity in white mouse assessed as ratio of number of biting mosquito in treated to untreated control at 1.5 hrs
Format: functional

With `CC(=O)OC1CC(C)CCC1C(C)C` (stereo not given) the Ratio was 38.7.

For `C=C(C)C1CC=C(CCOC(C)=O)CC1` (stereo not given), the Ratio was 58.5.

Molecule `C=C(C)C1CC=C(CCOC(=O)CC)CC1` (stereo not given) has a Ratio of 63.6.

`CC1=CCC(C(C)(C)O)CC1OC=O` (stereo not given) gave a Ratio of 90.

For `CC(=O)OCCC1C2CCC(C2)C1(C)C` (stereo not given), the Ratio was 53.

In the case of `CCCOCCC1=CCC2CC1C2(C)C` (stereo not given), the Ratio is reported as 72.5.

Molecule `CC1(C)C2CC=C(CCOC=O)C1C2` (stereo not given) has a Ratio of 56.1.

Molecule `CCC(CCCC1C2CCC(C2)C1(C)C)OC(C)=O` (stereo not given) has a Ratio of 50.2.

`CCC(CCC1C2CCC(C2)C1(C)C)C(C)OC(C)=O` (stereo not given) gave a Ratio of 51.5.

For `CCC(=O)OCCC1C2CCC(C2)C1(C)C` (stereo not given), the Ratio was 56.8.

`CCC(=O)OC1CC(C)CCC1C(C)C` (stereo not given) showed a Ratio of 40.5.

`CCOCCC1=CCC2CC1C2(C)C` (stereo not given) was tested, and the Ratio was 62.2.

`CC(=O)OCCC1=CCC2CC1C2(C)C` (stereo not given) showed a Ratio of 60.8.

Molecule `CCC(=O)OCCC1=CCC2CC1C2(C)C` (stereo not given) has a Ratio of 64.4.

`CC1(C)C2CC3OC3(C)C1C2` (stereo not given) gave a Ratio of 37.8.

`COCCC1=CCC2CC1C2(C)C` (stereo not given) gave a Ratio of 52.1.

Molecule `CC(=O)OC1CC(C(C)(C)O)CC=C1C` (stereo not given) has a Ratio of 81.

`CCCC(CCCC1C2CCC(C2)C1(C)C)OC(C)=O` (stereo not given) gave a Ratio of 51.7.

Work on `CC1CCC(C(C)C)C(O)C1` (stereo not given) [MENTHOL] yielded a Ratio of 53.

`CC1(C)C2CC=C(CCO)C1C2` (stereo not given) [Nopol] showed a Ratio of 69.
